Our source for the IC50 values is patent US20260365628A1, “SUBSTITUTED 3,4-DIHYDROQUINOLINONE INHIBITORS OF TSHR” (Septerna, Inc., priority 2022, published 2026).

Each structure is given as a SMILES string. Some results are limits rather than exact numbers.

This test has as its target T1, hTSHR (Homo sapiens, UniProt P16473).
T1 construct: expressed in transfected cells
Put plainly: hTSHR TR-FRET cAMP Assay (inhibition of M22-stimulated cAMP production). Type of test: cell-based. The settings on record: Expi293F Inducible cells stably expressing hTSHR; cAMP HTRF; stimulated with EC80 of anti-TSHR antibody M22; 15 min compound preincubation, 30 min at 37° C.; read-out: Activity (IC50 bins). The gist of the method:
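Readout was a cAMP HTRF ratio of 655/620 nm after lysis, scaled between the EC80 M22 signal (0% inhibition) and no-agonist vehicle (100%). Frozen induced Expi293F-hTSHR cells saw test compounds (0.5% DMSO) for 15 min at 37 °C before 30 min of M22 stimulation at EC80.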
On the technique in general: In TR-FRET formats the signal depends on donor and acceptor labels being close together.

T1 sequence (P16473 21-764): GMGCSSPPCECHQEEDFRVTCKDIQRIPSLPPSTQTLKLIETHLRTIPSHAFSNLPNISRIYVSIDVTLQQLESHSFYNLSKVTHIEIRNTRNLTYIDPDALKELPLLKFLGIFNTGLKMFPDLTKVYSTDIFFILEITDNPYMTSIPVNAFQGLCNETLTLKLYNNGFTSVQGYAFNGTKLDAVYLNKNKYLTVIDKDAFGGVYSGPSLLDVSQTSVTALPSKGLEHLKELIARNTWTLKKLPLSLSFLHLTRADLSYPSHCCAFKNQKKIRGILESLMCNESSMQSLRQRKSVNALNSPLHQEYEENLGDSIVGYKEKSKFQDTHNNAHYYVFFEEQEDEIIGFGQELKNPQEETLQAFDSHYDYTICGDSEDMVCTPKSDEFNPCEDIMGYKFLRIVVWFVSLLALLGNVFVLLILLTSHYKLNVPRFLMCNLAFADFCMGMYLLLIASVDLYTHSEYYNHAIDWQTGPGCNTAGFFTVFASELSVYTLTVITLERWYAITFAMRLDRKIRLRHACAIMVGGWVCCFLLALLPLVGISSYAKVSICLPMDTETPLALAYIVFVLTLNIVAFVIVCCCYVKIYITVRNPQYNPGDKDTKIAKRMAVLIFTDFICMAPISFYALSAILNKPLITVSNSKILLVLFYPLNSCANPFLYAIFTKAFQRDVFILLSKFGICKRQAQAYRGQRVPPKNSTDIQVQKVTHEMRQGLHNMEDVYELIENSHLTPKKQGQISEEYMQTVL

For orientation: IC50 means the concentration that inhibits the measured activity by half. `C[C@H]1Oc2cc(NC(=O)NC(C)(C)C)ccc2N([C@@H](C)c2cncc(C(F)(F)F)n2)C1=O` (single isomer, unassigned) [Example 306]: the 50% inhibitory concentration (IC50) was above 1000 nM.
On to `Cc1nc2cc(NC(=O)NC(C)(C)C)ccc2n([C@@H](C)c2cccc(C(F)(F)F)c2)c1=O` [Example 181, (S)-1-(tert-butyl)-3-(3-methyl-2-oxo-1-(1-(3-(trifluoromethyl)phenyl)ethyl)-1,2-dihydroquinoxalin-6-yl)urea], for which the IC50 lay in the range of 100 to 1000 nM.
As for `C[C@H]1Oc2cc(NC(=O)NC(C)(C)C)ccc2N(Cc2ccccc2)C1=O` [Example 41, (R)-1-(4-benzyl-2-methyl-3-oxo-3,4-dihydro-2H-benzo[b][1,4]oxazin-7-yl)-3-(tert-butyl)urea], the figure is below 100 nM; as for `C[C@H](c1cccc(Cl)c1)N1C(=O)COc2cc(NC(=O)NC(C)(C)C)ccc21` [Example 36, (R)-1-(tert-butyl)-3-(4-(1-(3-chlorophenyl)ethyl)-3-oxo-3,4-dihydro-2H-benzo[b][1,4]oxazin-7-yl)urea], above 1000 nM.
With `C[C@@H](c1cccc(C(F)(F)F)c1)N1C(=O)CCc2nc(NC(=O)NC(C)(C)C)ccc21` [Example 282, (S)-1-(tert-butyl)-3-(6-oxo-5-(1-(3-(trifluoromethyl)phenyl)ethyl)-5,6,7,8-tetrahydro-1,5-naphthyridin-2-yl)urea] the figure was 100 to 1000 nM; with `CC(C)(C)NC(=O)Nc1ccc2c(n1)CCC(=O)N2Cc1cccc(Cl)c1` [Example 281, 1-(tert-butyl)-3-(5-(3-chlorobenzyl)-6-oxo-5,6,7,8-tetrahydro-1,5-naphthyridin-2-yl)urea], 100 to 1000 nM.
As for `CC(C)(C)CNC(=O)Nc1ccc2c(c1)ncc(=O)n2Cc1cccc(OC(F)(F)F)c1` [Example 240, 1-neopentyl-3-(2-oxo-1-(3-(trifluoromethoxy)benzyl)-1,2-dihydroquinoxalin-6-yl)urea], the figure is 100 to 1000 nM; as for `C[C@H]1Oc2cc(NC(=O)NC3(C)CCOCC3)ccc2N([C@@H](C)c2ccccc2)C1=O` [Example 265, 1-((R)-2-methyl-3-oxo-4-((S)-1-phen-ylethyl)-3,4-dihydro-2H-benzo[b][1,4]oxazin-7-yl)-3-(4-methyltetrahydro-2H-pyran-4-yl)urea], 100 to 1000 nM; as for `CC(C)(C)NC(=O)Nc1ccc2c(c1)ncc(=O)n2Cc1cccc(Cl)c1` [Example 89, 1-(tert-butyl)-3-(1-(3-chlorobenzyl)-2-oxo-1,2-dihydroquinoxalin-6-yl)urea], 100 to 1000 nM.
`CC(C)(C)NC(=O)Nc1ccc2c(c1)ncc(=O)n2Cc1cccc(CCCC(F)(F)F)c1` [Example 93, 1-(tert-butyl)-3-(2-oxo-1-(3-(4,4,4-trifluoro-butyl)benzyl)-1,2-dihydro-quinoxalin-6-yl)urea]: the half-inhibitory concentration (IC50) was below 100 nM.
With `Cc1cccc(CN2C(=O)CCc3cc(NC(=O)NC(C)(C)C)ccc32)c1F` [Example 48, 1-(tert-butyl)-3-(1-(2-fluoro-3-methylbenzyl)-2-oxo-1,2,3,4-tetrahydroquinolin-6-yl)urea] the figure was below 100 nM; with `C[C@@H](c1cccc2c1CCOC2)n1c(=O)cnc2cc(NC(=O)NC(C)(C)C)ccc21` [Example 124, (S)-1-(tert-butyl)-3-(1-(1-(isochroman-5-yl)ethyl)-2-oxo-1,2-dihydroquinoxalin-6-yl)urea], above 1000 nM.
As to `C[C@H]1Oc2cc(NC(=O)OC3CCCC3)ccc2N([C@@H](C)c2ccccc2)C1=O` [Example 303, cyclopentyl ((R)-2-methyl-3-oxo-4-((S)-1-phenylethyl)-3,4-dihydro-2H-benzo[b][1,4]oxazin-7-yl)carbamate], the half-maximal inhibitory concentration (IC50) was below 100 nM.
As for `C[C@H]1Oc2cc(NC(=O)NC3(C)CCCC3)ccc2N([C@@H](C)c2cccc(C(F)(F)F)n2)C1=O` [Example 322, 1-((R)-2-methyl-3-oxo-4-((S)-1-(6-(trifluoromethyl)pyridin-2-yl)ethyl)-3,4-dihydro-2H-benzo[b][1,4]oxazin-7-yl)-3-(1-methylcyclopentyl)urea], the figure is below 100 nM.
With `C[C@@H](c1cccc(OC(F)(F)F)c1)n1c(=O)cnc2cc(NC(=O)OC3CCCC3)ccc21` [Example 359, cyclopentyl (S)-(2-oxo-1-(1-(3-(trifluoromethoxy)phenyl)ethyl)-1,2-dihydroquinoxalin-6-yl)carbamate] the figure was below 100 nM; with `C[C@H]1Oc2cc(NC(=O)NC(C)(C)C)ccc2N(Cc2cc(F)ccc2F)C1=O` [Example 177, (R)-1-(tert-butyl)-3-(4-(2,5-difluoro-benzyl)-2-methyl-3-oxo-3,4-dihydro-2H-benzo [b][1,4]oxazin-7-yl)urea], below 100 nM.
Regarding `C[C@H]1Oc2cc(NC(=O)NC(C)(C)C)ccc2N([C@@H](C)c2cccc(OC(F)(F)F)c2)C1=O` [Example 184, 1-(tert-butyl)-3-((R)-2-methyl-3-oxo-4-((S)-1-(3-(trifluoromethoxy)phenyl)ethyl)-3,4-dihydro-2H-benzo[b][1,4]oxazin-7-yl)urea], the IC50 fell in the range of 100 to 1000 nM.
Turning to `CC(C)c1cccc([C@H](C)n2c(=O)cnc3cc(NC(=O)NC(C)(C)C)ccc32)c1` [Example 136, (S)-1-(tert-butyl)-3-(1-(1-(3-iso-propylphenyl)ethyl)-2-oxo-1,2-dihydroquinoxalin-6-yl)urea], the half-inhibitory concentration (IC50) was in the range of 100 to 1000 nM.
As for `COC[C@@H]1Oc2cc(NC(=O)NC(C)(C)C)ccc2N(Cc2ccccc2)C1=O` [Example 288, (S)-1-(4-benzyl-2-(methoxymethyl)-3-oxo-3,4-dihydro-2H-benzo[b][1,4]oxazin-7-yl)-3-(tert-butyl)urea], the figure is above 1000 nM.
As for `CC1Oc2cc(NC(=O)NC(C)(C)C)ccc2N(Cc2cccc(Cl)c2)C1=O` (stereo in doubt) [Example 44, (S)-1-(tert-butyl)-3-(4-(3-chlorobenzyl)-2-methyl-3-oxo-3,4-dihydro-2H-benzo[b][1,4]oxazin-7-yl)urea], the figure is below 100 nM.
With `CC1(NC(=O)Nc2ccc3c(c2)ncc(=O)n3Cc2ccccc2)CCCC1` [Example 193, 1-(1-benzyl-2-oxo-1,2-dihydroquinoxalin-6-yl)-3-(1-methylcyclopentyl) urea] the figure was 100 to 1000 nM.
Turning to `CC(C)(C)NC(=O)Nc1ccc2c(c1)CCC(=O)N2Cc1ccc(C#N)cc1` [Example 17, 1-(tert-butyl)-3-(1-(4-cyanobenzyl)-2-oxo-1,2,3,4-tetrahydroquinolin-6-yl)urea], the IC50 is above 1000 nM.
With `COCC1(NC(=O)Nc2ccc3c(c2)O[C@H](C)C(=O)N3[C@@H](C)c2ccccc2)CCC1` [Example 261, 1-(1-(methoxy-methyl)cyclobutyl)-3-((R)-2-methyl-3-oxo-4-((S)-1-phen-ylethyl)-3,4-dihydro-2H-benzo [b][1,4]oxazin-7-yl)urea] the figure was 100 to 1000 nM; with `CC(C)(CC#N)NC(=O)Nc1ccc2c(c1)ncc(=O)n2Cc1cccc(OC(F)(F)F)c1` [Example 245, 1-(1-cyano-2-methylpropan-2-yl)-3-(2-oxo-1-(3-(trifluoromethoxy)enzyl)-1,2-dihydroquinoxalin-6-yl)urea], above 1000 nM.
As for `C[C@@H](c1ccccc1)n1c(=O)cnc2cc(NC(=O)NC(C)(C)C)c(C(F)(F)F)cc21` [Example 346, 3-tert-butyl-1-{2-oxo-1-[(1S)-1-phenylethyl]-7-(trifluoromethyl)quinoxalin-6-yl}urea], the figure is 100 to 1000 nM; as for `CC(C)(C)NC(=O)Nc1ccc2c(n1)CCC(=O)N2Cc1ccccc1` [Example 67, 1-(5-benzyl-6-oxo-5,6,7,8-tetrahydro-1,5-naphthyridin-2-yl)-3-(tert-butyl)urea], 100 to 1000 nM.
With `C[C@H]1Oc2cc(NC(=O)NC(C)(C)C)ccc2N(Cc2cccc(OC(F)(F)F)c2)C1=O` [Example 159, (R)-1-(tert-butyl)-3-(2-methyl-3-oxo-4-(3-(trifluoro-methoxy)benzyl)-3,4-dihydro-2H-benzo [b][1,4]oxazin-7-yl)urea] the figure was below 100 nM; with `C[C@@H](c1cccc(OC2CCCCC2)c1)n1c(=O)cnc2cc(NC(=O)NC(C)(C)C)ccc21` [Example 115, (S)-1-(tert-butyl)-3-(1-(1-(3-(cyclohexyloxy)phenyl)ethyl)-2-oxo-1,2-dihydroquinoxalin-6-yl)urea], 100 to 1000 nM.
Turning to `C[C@@H](c1cccc(OC2CCCC2)c1)n1c(=O)cnc2cc(NC(=O)NC(C)(C)C)ccc21` [Example 111, (S)-1-(tert-butyl)-3-(1-(1-(3-(cyclo-pentyloxy)phenyl)ethyl)-2-oxo-1,2-dihydroquinoxalin-6-yl)urea], the 50% inhibitory concentration (IC50) is above 1000 nM.
On to `CC(C)Oc1cccc([C@H](C)n2c(=O)cnc3cc(NC(=O)NC(C)(C)C)ccc32)c1` [Example 137, (S)-1-(tert-butyl)-3-(1-(1-(3-isopropoxyphenyl)eth-yl)-2-oxo-1,2-dihydroquinoxalin-6-yl)urea], for which the IC50 was 100 to 1000 nM.
As for `C[C@H]1Oc2c(cc(F)c(NC(=O)NC(C)(C)C)c2F)N(Cc2cccc(OC(F)F)c2)C1=O` [Example 335, 3-tert-butyl-1-[(2R)-4-{[3-(difluoromethoxy)phenyl]methyl}-6,8-difluoro-2-methyl-3-oxo-2H-1,4-benzoxazin-7-yl]urea], the figure is below 100 nM.
As for `C[C@@H](c1ccc(Cl)c(Cl)c1)n1c(=O)cnc2cc(NC(=O)NC(C)(C)C)ccc21` [Example 133, (S)-1-(tert-butyl)-3-(1-(1-(3,4-dichlorophenyl)ethyl)-2-oxo-1,2-dihydroquinoxalin-6-yl)urea], the figure is 100 to 1000 nM.
With `CC[C@@H]1Oc2cc(NC(=O)NC(C)(C)C)ccc2N(Cc2ccccc2)C1=O` [Example 278, (S)-1-(4-benzyl-2-ethyl-3-oxo-3,4-dihydro-2H-benzo[b][1,4]oxazin-7-yl)-3-(tert-butyl)urea], the IC50 was above 1000 nM.
As for `CC(C)(C)NC(=O)Nc1ccc2c(c1)CCC(=O)N2Cc1cccc(C#N)c1` [Example 18, 1-(tert-butyl)-3-(1-(3-cyanobenzyl)-2-oxo-1,2,3,4-tetrahydroquinolin-6-yl)urea], the figure is above 1000 nM.
